Source: patent US10479795B2 (Incyte Corporation, priority 2016, dated 2019)
Where a name gives a salt, the structure may show the parent alone. Read-outs that look alike come from different tables or passages of the source.

Key:
[1] = tested on: Phosphorylated Ribosomal Protein S6 (RPS6); experiment: THP-1 RPS6 ELISA Assay; format: cell-based, Human; details: THP-1 cells, read-out: PI3Kγ_THP1_RPS6_ELISA IC50
Method in brief: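 IC50 values come from a curve of percent inhibition against log compound concentration, using phospho-RPS6 ELISA (450 nm) on THP-1 lysates. Cells were serum-starved overnight, exposed to compound for 2 h at 37 °C, then challenged 15 min with 10 nM MCP-1.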

[2] = molecular target: PI3Kδ (p110δ/p85α) Recombinant Human Protein (Homo sapiens (Human), UniProt O00329); experiment: PI3Kδ Scintillation Proximity Assay; format: biochemical
PI3Kδ (p110δ/p85α) Recombinant Human Protein, sequence (O00329 whole entry): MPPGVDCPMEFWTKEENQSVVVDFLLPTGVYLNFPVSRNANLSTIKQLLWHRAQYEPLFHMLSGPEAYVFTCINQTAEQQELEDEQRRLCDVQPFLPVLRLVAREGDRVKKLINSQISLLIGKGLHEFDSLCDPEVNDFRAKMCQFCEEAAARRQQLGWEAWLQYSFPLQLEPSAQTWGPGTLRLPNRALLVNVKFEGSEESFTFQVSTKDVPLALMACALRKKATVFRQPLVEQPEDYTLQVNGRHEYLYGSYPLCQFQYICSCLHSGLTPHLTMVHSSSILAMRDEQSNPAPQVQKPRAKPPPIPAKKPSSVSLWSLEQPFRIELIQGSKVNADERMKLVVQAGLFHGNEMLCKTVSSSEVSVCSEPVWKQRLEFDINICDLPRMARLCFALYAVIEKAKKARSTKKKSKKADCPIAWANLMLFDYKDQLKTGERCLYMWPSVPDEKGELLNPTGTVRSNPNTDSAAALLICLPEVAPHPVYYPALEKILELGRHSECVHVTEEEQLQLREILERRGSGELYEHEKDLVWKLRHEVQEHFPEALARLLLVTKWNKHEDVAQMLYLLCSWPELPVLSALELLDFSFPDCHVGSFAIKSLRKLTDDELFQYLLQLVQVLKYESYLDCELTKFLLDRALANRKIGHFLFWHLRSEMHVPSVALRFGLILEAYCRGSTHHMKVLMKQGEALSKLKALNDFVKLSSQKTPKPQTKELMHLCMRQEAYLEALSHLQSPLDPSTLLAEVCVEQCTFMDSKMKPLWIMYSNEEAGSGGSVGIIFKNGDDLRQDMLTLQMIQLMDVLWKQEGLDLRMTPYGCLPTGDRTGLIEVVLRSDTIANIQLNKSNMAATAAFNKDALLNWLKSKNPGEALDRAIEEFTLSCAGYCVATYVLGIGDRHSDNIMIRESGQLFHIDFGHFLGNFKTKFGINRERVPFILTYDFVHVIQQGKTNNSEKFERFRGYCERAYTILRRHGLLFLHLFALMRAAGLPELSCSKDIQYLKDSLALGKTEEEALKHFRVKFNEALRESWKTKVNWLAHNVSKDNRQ
PI3Kδ (p110δ/p85α) Recombinant Human Protein, sequence (P27986 whole entry partner): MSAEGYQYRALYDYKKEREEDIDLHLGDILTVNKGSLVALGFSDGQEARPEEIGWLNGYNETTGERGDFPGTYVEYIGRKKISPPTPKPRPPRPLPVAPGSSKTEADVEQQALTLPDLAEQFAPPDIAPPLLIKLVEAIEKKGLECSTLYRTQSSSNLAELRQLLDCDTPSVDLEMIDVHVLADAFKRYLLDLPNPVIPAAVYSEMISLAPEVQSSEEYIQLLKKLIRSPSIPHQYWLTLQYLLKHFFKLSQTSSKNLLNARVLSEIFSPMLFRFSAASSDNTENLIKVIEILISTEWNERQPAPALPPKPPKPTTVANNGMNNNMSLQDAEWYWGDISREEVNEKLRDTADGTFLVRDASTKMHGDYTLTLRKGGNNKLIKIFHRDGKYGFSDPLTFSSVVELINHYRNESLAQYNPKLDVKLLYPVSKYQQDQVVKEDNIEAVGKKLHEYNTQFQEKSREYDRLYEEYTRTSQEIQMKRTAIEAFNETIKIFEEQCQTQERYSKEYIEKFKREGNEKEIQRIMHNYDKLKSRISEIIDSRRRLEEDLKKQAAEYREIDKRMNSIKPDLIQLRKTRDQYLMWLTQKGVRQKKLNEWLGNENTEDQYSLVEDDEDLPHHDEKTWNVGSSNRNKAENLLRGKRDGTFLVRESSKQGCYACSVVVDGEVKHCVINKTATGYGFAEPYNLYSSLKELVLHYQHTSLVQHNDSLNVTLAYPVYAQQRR
Method in brief: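 Radiometric read-out: 33P-labelled PIP3 product captured on WGA SPA beads and counted, with IC50 fitted from percent activity relative to DMSO control. Enzyme (3.4 nM) was incubated 120 min at room temperature with 20 μM PIP2 and 2 μM ATP at pH 6.7, 2% DMSO.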

[3] = molecular target: PI3Kγ (p110γ) Recombinant Human Protein (Homo sapiens (Human), UniProt P48736); experiment: PI3K-γ Scintillation Proximity Assay; format: biochemical; details: read-out: PI3Kγ IC50
PI3Kγ (p110γ) Recombinant Human Protein, sequence (P48736 whole entry): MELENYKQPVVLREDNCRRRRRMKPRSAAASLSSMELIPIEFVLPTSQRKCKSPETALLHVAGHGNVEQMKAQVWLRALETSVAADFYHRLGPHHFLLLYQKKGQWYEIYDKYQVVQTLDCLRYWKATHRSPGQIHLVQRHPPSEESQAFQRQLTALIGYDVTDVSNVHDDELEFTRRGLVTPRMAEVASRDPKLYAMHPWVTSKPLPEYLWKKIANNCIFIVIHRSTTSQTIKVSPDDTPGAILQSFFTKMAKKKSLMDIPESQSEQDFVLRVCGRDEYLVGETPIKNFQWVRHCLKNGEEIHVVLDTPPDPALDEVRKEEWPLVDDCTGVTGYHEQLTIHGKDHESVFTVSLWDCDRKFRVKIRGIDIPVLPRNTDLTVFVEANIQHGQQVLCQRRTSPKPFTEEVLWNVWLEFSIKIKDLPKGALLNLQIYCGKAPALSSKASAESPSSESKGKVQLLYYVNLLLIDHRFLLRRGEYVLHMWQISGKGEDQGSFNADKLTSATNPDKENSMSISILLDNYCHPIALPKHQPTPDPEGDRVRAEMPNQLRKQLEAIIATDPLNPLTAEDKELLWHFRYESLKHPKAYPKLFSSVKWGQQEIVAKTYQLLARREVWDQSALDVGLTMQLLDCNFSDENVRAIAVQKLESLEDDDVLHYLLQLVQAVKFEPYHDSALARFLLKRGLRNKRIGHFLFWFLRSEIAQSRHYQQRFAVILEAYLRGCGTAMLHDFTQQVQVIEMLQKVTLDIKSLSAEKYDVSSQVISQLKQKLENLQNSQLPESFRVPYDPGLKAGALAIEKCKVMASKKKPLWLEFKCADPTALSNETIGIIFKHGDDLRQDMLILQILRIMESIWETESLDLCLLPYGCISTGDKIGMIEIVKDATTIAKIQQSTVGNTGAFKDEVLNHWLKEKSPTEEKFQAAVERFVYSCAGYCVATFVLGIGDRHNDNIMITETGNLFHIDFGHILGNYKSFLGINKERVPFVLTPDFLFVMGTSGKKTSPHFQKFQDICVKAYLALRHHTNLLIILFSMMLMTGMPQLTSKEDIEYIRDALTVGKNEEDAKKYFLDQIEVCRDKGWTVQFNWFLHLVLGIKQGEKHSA
Method in brief: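 Radiometric SPA readout: […] bound to WGA beads after overnight shaking, IC50 derived from % activity of DMSO control. Reaction used human p110γ, 2 μM ATP, 20 μM PIP2, pH 6.7 MOPS buffer with MgCl2, DTT, CHAPS, 2% DMSO, room temperature.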

For Nc1nc(C(F)(F)F)cn2c(-c3ccc(F)c(S(=O)(=O)NC45CCC(CO)(C4)C5)c3)cnc12 [Example 398, 5-(8-Amino-6-(trifluoromethyl)imidazo[1,2-a]pyrazin-3-yl)-2-fluoro-N-(4-(hydroxymethyl)bicyclo[2.1.1]hexan-1-yl)benzenesulfonamide trifluoroacetate salt], the IC50 ([1]; Homo sapiens) was 0.5 to 1 µM, the IC50 [2] was 0.1 to 0.5 µM and the IC50 [3] was < 0.1 µM.
With Nc1nc(C(F)(F)F)cn2c(-c3ccc(Cl)c(S(=O)(=O)NC45CCC(CO)(C4)C5)c3)cnc12 [Example 399, 5-(8-Amino-6-(trifluoromethyl)imidazo[1,2-a]pyrazin-3-yl)-2-chloro-N-(4-(hydroxymethyl)bicyclo[2.1.1]hexan-1-yl)benzenesulfonamide trifluoroacetate salt] the IC50 ([1]; Homo sapiens) was > 1 µM, the IC50 [2] was < 0.1 µM and the IC50 [3] was < 0.1 µM.
With Cc1cc(C)c(S(=O)(=O)NC23CCC(CO)(C2)C3)cc1-c1cnc2c(N)nc(C(F)(F)F)cn12 [Example 400, 5-(8-Amino-6-(trifluoromethyl)imidazo[1,2-a]pyrazin-3-yl)-N-(4-(hydroxymethyl)bicyclo[2.1.1]hexan-1-yl)-2,4-dimethylbenzenesulfonamide trifluoroacetate salt] the IC50 ([1]; Homo sapiens) was < 0.1 µM, the IC50 [2] was < 0.1 µM and the IC50 [3] was < 0.1 µM.
For Cc1nc(N)c2ncc(-c3cc(S(=O)(=O)N[C@H]4CC[C@](C)(O)CC4)c(F)cc3C)n2n1 [Example 402, 5-(4-amino-2-methylimidazo[1,2-f][1,2,4]triazin-7-yl)-2-fluoro-N-((1r,4r)-4-hydroxy-4-methylcyclohexyl)-4-methylbenzenesulfonamide trifluoroacetate salt], the IC50 [1] was 0.1 to 0.5 µM, the IC50 [2] was 0.1 to 0.5 µM and the IC50 [3] was < 0.1 µM.
With Cc1nc(N)c2ncc(-c3cc(S(=O)(=O)NCC(C)(C)O)c(Cl)cc3C)n2n1 [Example 403, 5-(4-amino-2-methylimidazo[1,2-f][1,2,4]triazin-7-yl)-2-chloro-N-(2-hydroxy-2-methylpropyl)-4-methylbenzenesulfonamide trifluoroacetate salt] the IC50 [1] was < 0.1 µM, the IC50 [2] was 0.1 to 0.5 µM and the IC50 [3] was < 0.1 µM.
With Cc1nc(N)c2ncc(-c3cc(S(=O)(=O)NC45CCC(CO)(CC4)OC5)cc(F)c3C)n2n1 [Example 404, 3-(4-amino-2-methylimidazo[1,2-f][1,2,4]triazin-7-yl)-5-fluoro-N-(1-(hydroxymethyl)-2-oxabicyclo[2.2.2]octan-4-yl)-4-methylbenzenesulfonamide trifluoroacetate salt] the IC50 [1] was < 0.1 µM, the IC50 [2] was < 0.1 µM and the IC50 [3] was < 0.1 µM.
For Cc1cc(F)c(S(=O)(=O)N[C@H]2CC[C@H](CC#N)OC2)cc1-c1cnc2c(N)nc(C(F)(F)F)cn12 [Example 405, 5-(8-amino-6-(trifluoromethyl)imidazo[1,2-a]pyrazin-3-yl)-N-((3S,6R)-6-(cyanomethyl)tetrahydro-2H-pyran-3-yl)-2-fluoro-4-methylbenzenesulfonamide trifluoroacetate salt], the IC50 ([1]; Homo sapiens) was < 0.1 µM, the IC50 [2] was 0.1 to 0.5 µM and the IC50 [3] was < 0.1 µM.
[2H]C([2H])([2H])c1ccc(S(=O)(=O)N[C@H]2CC[C@H](CC#N)OC2)cc1-c1cnc2c(N)nc(C(F)(F)F)cn12 [Example 406, 3-(8-amino-6-(trifluoromethyl)imidazo[1,2-a]pyrazin-3-yl)-N-((3S,6R)-6-(cyanomethyl)tetrahydro-2H-pyran-3-yl)-4-(methyl-d3)benzenesulfonamide] was tested, and the IC50 ([1]; Homo sapiens) was < 0.1 µM, the IC50 [2] was < 0.1 µM and the IC50 [3] was < 0.1 µM.
Cc1cc(F)c(S(=O)(=O)N2CCCC(CO)C2)cc1-c1cnc2c(N)nc(C(F)(F)F)cn12 (stereo not drawn) [Example 408, (1-((5-(8-Amino-6-(trifluoromethyl)imidazo[1,2-a]pyrazin-3-yl)-2-fluoro-4-methylphenyl)sulfonyl)piperidin-3-yl)methanol] was tested, and the IC50 ([1]; Homo sapiens) was > 1 µM, the IC50 [2] was 0.1 to 0.5 µM and the IC50 [3] was < 0.1 µM.
With [2H]C([2H])([2H])c1ccc(S(=O)(=O)N2CCCC(CO)C2)cc1-c1cnc2c(N)nc(C(F)(F)F)cn12 (stereo not drawn) [Example 409, (1-((3-(8-Amino-6-(trifluoromethyl)imidazo[1,2-a]pyrazin-3-yl)-4-(methyl-d3)phenyl)sulfonyl)piperidin-3-yl)methanol] the IC50 ([1]; Homo sapiens) was 0.1 to 0.5 µM, the IC50 [2] was 0.1 to 0.5 µM and the IC50 [3] was < 0.1 µM.
Cc1cc(Cl)c(S(=O)(=O)N[C@H]2CC[C@](C)(O)CC2)cc1-c1cnc2c(N)nc(C(F)(F)F)nn12 [Example 410, 5-(4-Amino-2-(trifluoromethyl)imidazo[1,2-f][1,2,4]triazin-7-yl)-2-chloro-N-((1r,4r)-4-hydroxy-4-methylcyclohexyl)-4-methylbenzenesulfonamide trifluoroacetate salt] was tested, and the IC50 [1] was < 0.1 µM, the IC50 [2] was < 0.1 µM and the IC50 [3] was < 0.1 µM.
Nc1nc(C(F)(F)F)nn2c(-c3cccc(S(=O)(=O)NC45CCC(CO)(C4)C5)c3)cnc12 [Example 411, 3-(4-Amino-2-(trifluoromethyl)imidazo[1,2-f][1,2,4]triazin-7-yl)-N-(4-(hydroxymethyl)bicyclo[2.1.1]hexan-1-yl)benzenesulfonamide trifluoroacetate salt] was tested, and the IC50 [1] was 0.1 to 0.5 µM, the IC50 [2] was 0.1 to 0.5 µM and the IC50 [3] was < 0.1 µM.
For Cc1cc(F)c(S(=O)(=O)N[C@H]2CC[C@](C)(O)CC2)cc1-c1cnc2c(N)nc(C(F)(F)F)nn12 [Example 412, 5-(4-Amino-2-(trifluoromethyl)imidazo[1,2-f][1,2,4]triazin-7-yl)-2-fluoro-N-((1r,4r)-4-hydroxy-4-methylcyclohexyl)-4-methylbenzenesulfonamide trifluoroacetate salt], the IC50 [1] was < 0.1 µM, the IC50 [2] was 0.1 to 0.5 µM and the IC50 [3] was < 0.1 µM.
In the case of Cc1cc(C)c(S(=O)(=O)N[C@H]2CC[C@](C)(O)CC2)cc1-c1cnc2c(N)nc(C(F)(F)F)nn12 [Example 413, 5-(4-Amino-2-(trifluoromethyl)imidazo[1,2-f][1,2,4]triazin-7-yl)-N-((1r,4r)-4-hydroxy-4-methylcyclohexyl)-2,4-dimethylbenzenesulfonamide trifluoroacetate salt], the IC50 [1] is reported as < 0.1 µM, the IC50 [2] is reported as 0.1 to 0.5 µM and the IC50 [3] is reported as < 0.1 µM.
With N#CC12CCC(NS(=O)(=O)c3cc(-c4cnc5c(N)nc(C(F)(F)F)nn45)ccc3Cl)(C1)C2 [Example 414, 5-(4-Amino-2-(trifluoromethyl)imidazo[1,2-f][1,2,4]triazin-7-yl)-2-chloro-N-(4-cyanobicyclo[2.1.1]hexan-1-yl)benzenesulfonamide] the IC50 [1] was 0.1 to 0.5 µM, the IC50 [2] was < 0.1 µM and the IC50 [3] was < 0.1 µM.
In the case of N#CC12CCC(NS(=O)(=O)c3cccc(-c4cnc5c(N)nc(C(F)(F)F)nn45)c3)(C1)C2 [Example 415, 3-(4-Amino-2-(trifluoromethyl)imidazo[1,2-f][1,2,4]triazin-7-yl)-N-(4-cyanobicyclo[2.1.1]hexan-1-yl)benzenesulfonamide trifluoroacetate salt], the IC50 [1] is reported as < 0.1 µM, the IC50 [2] is reported as 0.1 to 0.5 µM and the IC50 [3] is reported as < 0.1 µM.
Cc1c(F)cc(S(=O)(=O)NC23CCC(C#N)(C2)C3)cc1-c1cnc2c(N)nc(C(F)(F)F)nn12 [Example 416, 3-(4-Amino-2-(trifluoromethyl)imidazo[1,2-f][1,2,4]triazin-7-yl)-N-(4-cyanobicyclo[2.1.1]hexan-1-yl)-5-fluoro-4-methylbenzenesulfonamide trifluoroacetate salt] was tested, and the IC50 [1] was < 0.1 µM, the IC50 [2] was 0.1 to 0.5 µM and the IC50 [3] was < 0.1 µM.
With N#CC12CCC(NS(=O)(=O)c3cc(-c4cnc5c(N)nc(C(F)(F)F)nn45)ccc3F)(C1)C2 [Example 417, 5-(4-Amino-2-(trifluoromethyl)imidazo[1,2-f][1,2,4]triazin-7-yl)-N-(4-cyanobicyclo[2.1.1]hexan-1-yl)-2-fluorobenzenesulfonamide trifluoroacetate salt] the IC50 [1] was 0.5 to 1 µM, the IC50 [2] was 0.1 to 0.5 µM and the IC50 [3] was < 0.1 µM.
In the case of Nc1nc(C(F)(F)F)nn2c(-c3ccc(F)c(S(=O)(=O)NC45CCC(CO)(C4)C5)c3)cnc12 [Example 418, 5-(4-Amino-2-(trifluoromethyl)imidazo[1,2-f][1,2,4]triazin-7-yl)-2-fluoro-N-(4-(hydroxymethyl)bicyclo[2.1.1]hexan-1-yl)benzenesulfonamide], the IC50 [1] is reported as > 1 µM, the IC50 [2] is reported as 0.1 to 0.5 µM and the IC50 [3] is reported as < 0.1 µM.
In the case of C[C@]1(O)CC[C@H](NS(=O)(=O)c2cc(-c3cnc4c(N)nc(-c5ccccc5F)cn34)ccc2F)CC1 [Example 421, 5-(8-amino-6-(2-fluorophenyl)imidazo[1,2-a]pyrazin-3-yl)-2-fluoro-N-((1r,4r)-4-hydroxy-4-methylcyclohexyl)benzenesulfonamide], the IC50 [1] is reported as < 0.1 µM, the IC50 [2] is reported as < 0.1 µM and the IC50 [3] is reported as < 0.1 µM.
For C[C@]1(O)CC[C@H](NS(=O)(=O)c2cc(-c3cnc4c(N)nc(-c5ccncc5F)cn34)ccc2F)CC1 [Example 422, 5-(8-amino-6-(3-fluoropyridin-4-yl)imidazo[1,2-a]pyrazin-3-yl)-2-fluoro-N-((1r,4r)-4-hydroxy-4-methylcyclohexyl)benzenesulfonamide], the IC50 [1] was < 0.1 µM, the IC50 [2] was < 0.1 µM and the IC50 [3] was < 0.1 µM.
